Series [1] deals with human premyelocytic leukemia cells (HL-60). The series can be described thus: 50% inhibition of propagation of undifferentiated human premyelocytic leukemia HL-60 cells. In kind it is cell-based. The following applies: 144 h, 6 days incubation, read-out: Activity of test compound to inhibit by 50% the undifferentiated propagation of HL-60 cells (IC50). How it is done:
(§1) The human premyelocytic elukemia cells (HL-60 cell) are characterized by the ability to respond to pharmacological inducers of differentiation and can produce the normal granulocytes when they have been differentiated, as described in the "Blood" Vol. 54, No. 3, 713-733 (1979).
(§2) Thus, firstly the cell differentiation-inducing activity of the compound was assayed by the following procedure described in said "Blood". Namely, HL-60 cells were incubated by passing successively through RPMI 1640 media supplemented with 10% FCS (fetal calf serum), followed by adding the test compound at varying concentrations to aliquots of the culture of the HL-60 cells at the logarithmic phase of growth. The HL-60 cells thus incubated were further incubated in the presence of the test compound for 6 days and subsequently fixed to slide glasses. The fixed HL-60 cells were stained with May-Gruenwald-Giemsa's reagent and the morphology of the nuclei in the stained cells was examined to judge which of the cells has been differentiated into the normal granulocytes. Then, the number of the HL-60 cells which had propagated were counted.
As said "IC50 " concentration of the test compound was assumed such concentration of the test compound at which the counted number of the HL-60 cells having propagated was reduced by 50%, as compared to that counted in the control tests where the test compound was not used.

Series [2] has the same test system. Description: NBT-reducing ability (differentiation) of HL-60 cells after treatment with test compound. In kind it is cell-based. The conditions noted are these: 0.1% NBT, 37° C., 20 minutes. How it is done:
as §1, §2
Secondly, the another aliquot of the culture of the HL-60 cells which were incubated in the above procedure in the presence of the test compound at its evaluated "IC50 " concentration was centrifuged to collect the cells, which were then diluted with a volume of RPMI 1640 medium supplemented with 10% FCS, to provide a given concentration of the cells. Subsequently, the cells which were diluted with said medium were added and mixed with 0.1% of NBT and then incubated at 37° C. for 20 minutes. The number of the cells which stained black color owing to the involved reduction of NBT and which could be judged to have the ability to reduce NBT was counted.

For series [3], the system named is Influenza virus A/PR/8/34 strain. The series can be described thus: Antiviral activity, Virus No. 1 infested MDCK cell. In kind it is cell-based. The conditions noted are these: for IC50: PR/8, MDCK, 48 h, read-out: Inhibitory Concentration (IC50) which inhibited by 50% the denaturation of Virus No. 1 infested MDCK cell; for Quotient of minimum denaturation concentration divided by IC50, Virus No. 1: figures in brackets, MDCK cell, Influenza virus, 2880 min.

For series [4], the system named is Newcastle disease virus (NDV) Miyadera strain. The series can be described thus: microbe, parasite or virus in culture. In kind it is cell-based. The following applies: for IC50: avian paramyxovirus 1, 48 h, read-out: Inhibitory Concentration (IC50) which inhibited by 50% the denaturation of Virus No. 2 infested HeLa-Y cell; for Quotient of minimum denaturation concentration divided by IC50, Virus No. 2: figures in brackets, HeLa-Y cell, NDV, 2880 min.

The test system of series [5] is vesicular stomatitis virus (VSV) New Jersey strain. Description: microbe, parasite or virus in culture. In kind it is cell-based. The following applies: for IC50: Vesicular stomatitis virus, L929, 48 h, read-out: Inhibitory Concentration (IC50) which inhibited by 50% the denaturation of Virus No. 3 infested L-929 cell; for Quotient of minimum denaturation concentration divided by IC50, Virus No. 3: figures in brackets, L-929 cell, VSV, 2880 min.

The subject of series [6] is Vaccinia virus Lister strain. Description: organism not typed. It is filed as cell-based. The following applies: for IC50: 48 h, read-out: Inhibitory Concentration (IC50) which inhibited by 50% the denaturation of Virus No. 4 infested HeLa-Y cell; for Quotient of minimum denaturation concentration divided by IC50, Virus No. 4: figures in brackets, HeLa-Y cell, Vaccinia virus, 2880 min.

In series [7] the test system is Herpes simplex virus (HSV) Type 2 196 strain. Description: Antiviral activity, Virus No. 5 infested Vero cell. It is filed as cell-based. The following applies: for IC50: 48 h, HSV Type 2, Vero cell, read-out: Inhibitory Concentration (IC50) which inhibited by 50% the denaturation of Virus No. 5 infested Vello cell; for Quotient of minimum denaturation concentration divided by IC50, Virus No. 5: figures in brackets, Vero cell, HSV Type 2.

Series [8] is described as follows: in vitro. The following applies: human, hela-y cells.
A short description of series [9]: in vitro. The conditions noted are these: monkey, vero cells.
Series [10] in a line: in vitro. The following applies: mouse, l-929 cells.
A short description of series [11]: in vitro. The following applies: dog, mdck.

Each structure is given as a SMILES string. Values after ≈ are worked out from the molar mass of the structure shown.

On to `CCN1C(=O)N(CC)C2C(C)(C)C(C)(C)C2(F)C1=O` (stereo not shown) [TI-65 Substance, 2,4-diethyl-6-fluoro-7,7,8,8-tetramethyl-2,4-diaza-bicyclo{4.2.0}octane-3,5-dione], for which the IC50 in series [1] was 36 µg/mL (≈ 133 µM); in series [3], 375 µg/mL (≈ 1390 µM); in series [4] it was > 250 µg/mL; in series [5], > 125 µg/mL; in [6], > 250 µg/mL; in series [7], 188 µg/mL (≈ 695 µM). The “Percent of the number of the cells showing the NBT-reducing ability after treatment with test compound at IC50 concentration” value in [2] is listed as 20%. Moreover, the “Quotient of minimum denaturation concentration divided by IC50, Virus No. 1” value in series [3] is reported as 2.67. The “Quotient of minimum denaturation concentration divided by IC50, Virus No. 2” value in series [4] was < 1.00. The “Quotient of minimum denaturation concentration divided by IC50, Virus No. 3” value in series [5] is recorded as < 2.00. For the same molecule, the “Quotient of minimum denaturation concentration divided by IC50, Virus No. 4” value in series [6] is on record as < 1.00. In [7], the “Quotient of minimum denaturation concentration divided by IC50, Virus No. 5” value is reported as 2.66. The MCC at 48 h in the series “in vitro [8]” is 250 µg/mL; in the series “in vitro [9]” it was 500 µg/mL; in the series “in vitro [10]” it was 250 µg/mL; in “in vitro [11]”, 1000 µg/mL.

Turning to `CCN1C(=O)NC(=O)C2(F)C1C(C)(C)C2(C)C` (stereo not shown) [TI-62 Substance, 2-ethyl-6-fluoro-7,7,8,8-tetramethyl-2,4-diaza-bicyclo{4.3.0}octane-3,5-dione], the IC50 is 9 µg/mL (≈ 37.1 µM) in series [1]; > 500 µg/mL in series [3]; > 250 µg/mL in [4]; > 125 µg/mL in series [5]; > 250 µg/mL in [6]; > 250 µg/mL in series [7]. The “Percent of the number of the cells showing the NBT-reducing ability after treatment with test compound at IC50 concentration” value in series [2] amounted to 34%. Further, the “Quotient of minimum denaturation concentration divided by IC50, Virus No. 1” value in series [3] was < 2.00. Besides, the “Quotient of minimum denaturation concentration divided by IC50, Virus No. 2” value in series [4] is < 1.00. Moreover, in [5], the “Quotient of minimum denaturation concentration divided by IC50, Virus No. 3” value is recorded as < 2.00. The “Quotient of minimum denaturation concentration divided by IC50, Virus No. 4” value in [6] is < 1.00. Also, the “Quotient of minimum denaturation concentration divided by IC50, Virus No. 5” value in series [7] was < 2.00. Further, the MCC at 48 h came to 250 µg/mL in “in vitro [8]”, 500 µg/mL in the series “in vitro [9]”, 250 µg/mL in the series “in vitro [10]” and 1000 µg/mL in “in vitro [11]”.

Turning to `CC1(C)O[C@@H]2[C@H](O1)[C@@H](CO)O[C@H]2N1C(=O)NC(=O)C2C1C(C)(C)C2(C)C` (stereo partly drawn) [TI-28 Substance, 7,7,8,8-tetramethyl-2-(2',3'-isopropylidene-ribofuranosyl)-cis-2,4-diaza-bicyclo{4.2.0}octane-3,5-dione], the IC50 in series [1] was 62.5 µg/mL (≈ 170 µM); in [3], 750 µg/mL (≈ 2040 µM); in series [4] it was > 1000 µg/mL; in series [5], 1000 µg/mL (≈ 2710 µM); in series [6], > 1000 µg/mL; in series [7], > 1000 µg/mL. Also, the “Percent of the number of the cells showing the NBT-reducing ability after treatment with test compound at IC50 concentration” value in series [2] worked out at 37%. The “Quotient of minimum denaturation concentration divided by IC50, Virus No. 1” value in series [3] was 1.33. The “Quotient of minimum denaturation concentration divided by IC50, Virus No. 3” value in [5] is 1.0. Moreover, the “Quotient of minimum denaturation concentration divided by IC50, Virus No. 5” value in [7] was < 1.0. Moreover, the MCC at 48 h in “in vitro [8]” was > 1000 µg/mL; in the series “in vitro [9]”, > 1000 µg/mL; in the series “in vitro [10]” it was > 1000 µg/mL; in “in vitro [11]” it was 1000 µg/mL.

In the case of `Nc1nc2c(ncn2COCCO)c(=O)[nH]1` [Acyclovir, reference compound], in series [7], the IC50 worked out at 1.17 µg/mL (≈ 5.2 µM) and the “Quotient of minimum denaturation concentration divided by IC50, Virus No. 5” value is recorded as > 855. In addition, the MCC at 48 h in “in vitro [9]” is > 1000 µg/mL.

For the molecule `NC12CC3CC(CC(C3)C1)C2` [Amantadine, reference compound], in series [3], the IC50 was 50 µg/mL (≈ 331 µM) and the “Quotient of minimum denaturation concentration divided by IC50, Virus No. 1” value is reported as 5.0. The MCC at 48 h in “in vitro [11]” was determined as 250 µg/mL.
